Measured values published in ChEMBL document CHEMBL5625275, “Design, synthesis and biological evaluation of tanshinone IIA derivatives as NLRP3 inflammasome inhibitors” (Bioorg Med Chem Lett, 2024).
Active and inactive are the calls of the source. The calls are words filed in the database; no cut-off is given here.

How the values were obtained:
[1] = biological target: NACHT, LRR and PYD domains-containing protein 3 (Mus musculus, UniProt Q8R4B8); assay: Inhibition of NLRP3 inflammasome in mouse J774.A1 cells assessed as inhibition of IL-1 beta secretion; type: cell-based
[2] = Cytotoxicity against mouse J774.A1 cells assessed as cell viability; type: toxicity, cell-based; conditions: read-out: TC50 (the source's name)
[3] = biological target: NACHT, LRR and PYD domains-containing protein 3 (Mus musculus) (UniProt Q8R4B8); assay: Inhibition of NLRP3 inflammasome activation in LPS primed mouse J774.A1 cells assessed as decrease in IL-1 beta production preincubated with compound for 1 hr followed by nigericin stimulation and measured after 1 hr by ELISA method; type: cell-based; conditions: dose 1-5 µM, time 2.0 hrs
NLRP3 inflammasome = assay: Selectivity index, ratio of TC50 for mouse J774.A1 cells to IC50 for NLRP3 inflammasome in mouse J774.A1 cells; type: toxicity, cell-based; conditions: read-out: Selectivity Index
[4] = biological target: NACHT, LRR and PYD domains-containing protein 3 (Mus musculus) (UniProt Q8R4B8); assay: Inhibition of NLRP3 inflammasome activation in LPS primed mouse BMDM cells assessed as decrease in IL-1 beta production preincubated with compound for 1 hr followed by nigericin stimulation and measured after 1 hr by ELISA method; type: cell-based; conditions: dose 1-5 µM, time 2.0 hrs
[5] = biological target: NACHT, LRR and PYD domains-containing protein 3 (Mus musculus) (UniProt Q8R4B8); assay: Inhibition of NLRP3 inflammasome activation in LPS primed mouse J774.A1 cells assessed as reduction in lactate dehydrogenase at 1 to 5 uM preincubated with compound for 1 hr followed by nigericin stimulation and measured after 1 hr by ELISA method; type: cell-based; conditions: dose 1-5 µM, time 2.0 hrs
[6] = biological target: NACHT, LRR and PYD domains-containing protein 3 (Mus musculus) (UniProt Q8R4B8); assay: Inhibition of NLRP3 inflammasome activation in LPS primed mouse J774.A1 cells assessed as reduction in cleaved gasdermin-D at 1 to 5 uM preincubated with compound for 1 hr followed by nigericin stimulation and measured after 1 hr by ELISA method; type: cell-based; conditions: dose 1-5 µM, time 2.0 hrs
[7] = biological target: NACHT, LRR and PYD domains-containing protein 3 (Mus musculus) (UniProt Q8R4B8); assay: Inhibition of NLRP3 inflammasome in LPS primed mouse J774.A1 cells assessed as inhibition of IL-1 beta secretion in cell supernatant at 1 to 5 uM preincubated with compound for 1 hr followed by nigericin stimulation and measured after 1 hr by Western blot analysis; type: cell-based; conditions: dose 1-5 µM, time 2.0 hrs
[8] = biological target: NACHT, LRR and PYD domains-containing protein 3 (Mus musculus) (UniProt Q8R4B8); assay: Inhibition of NLRP3 inflammasome in LPS primed mouse J774.A1 cells assessed as inhibition of caspase-1 maturation at 1 to 5 uM preincubated with compound for 1 hr followed by nigericin stimulation and measured after 1 hr by Western blot analysis; type: cell-based; conditions: dose 1-5 µM, time 2.0 hrs
Mus musculus [9] = assay: Anti-inflammatory activity against LPS-induced peritonitis C57BL/6 mouse model assessed as inhibition of IL-1 beta level in serum at 25 to 100 mg/kg, IG by ELISA analysis; type: functional, organism-based; conditions: dose 25-100 mg/kg
Mus musculus [10] = assay: Anti-inflammatory activity against LPS-induced peritonitis C57BL/6 mouse model assessed as inhibition of IL-1 beta level in peritoneal fluid at 25 to 100 mg/kg, IG by ELISA analysis; type: functional, organism-based; conditions: dose 25-100 mg/kg
J774.A1 [11] = assay: Inhibition of intracellular ROS generation in LPS primed mouse J774.A1 cells assessed as decrease in ROS positive cells at 1 uM pretreated for 1 hr followed by nigericin treatment for 1 hr by DCFH-DA staining based fluorescence microscopy (reference value: 52%); type: functional; set-up: scale not given: the % may be the effect or the level left; conditions: time 2 hrs
J774.A1 [12] = assay: Inhibition of intracellular ROS generation in LPS primed mouse J774.A1 cells assessed as decrease in ROS positive cells at 5 uM pretreated for 1 hr followed by nigericin treatment for 1 hr by DCFH-DA staining based fluorescence microscopy (reference value: 52%); type: functional; set-up: scale not given: the % may be the effect or the level left; conditions: time 2 hrs
J774.A1 [13] = assay: Inhibition of intracellular ROS generation in LPS primed mouse J774.A1 cells pretreated for 1 hr followed by nigericin treatment for 1 hr by DCFH-DA staining based fluorescence microscopy; type: functional, cell-based; conditions: dose 1-5 µM, time 2.0 hrs
J774.A1 [14] = assay: Inhibition of mitochondrial ROS production in LPS/nigericin stimulated mouse J774.A1 cells at 1 to 5 uM pretreated for 1 hr with compound and LPS followed by nigericin treatment for 1 hr by MitoSOX staining based immunofluorescence analysis; type: functional, cell-based; conditions: dose 1-5 µM, time 2.0 hrs

NACHT, LRR and PYD domains-containing protein 3 (Mus musculus), sequence (Q8R4B8 whole entry, the tested form may be a part): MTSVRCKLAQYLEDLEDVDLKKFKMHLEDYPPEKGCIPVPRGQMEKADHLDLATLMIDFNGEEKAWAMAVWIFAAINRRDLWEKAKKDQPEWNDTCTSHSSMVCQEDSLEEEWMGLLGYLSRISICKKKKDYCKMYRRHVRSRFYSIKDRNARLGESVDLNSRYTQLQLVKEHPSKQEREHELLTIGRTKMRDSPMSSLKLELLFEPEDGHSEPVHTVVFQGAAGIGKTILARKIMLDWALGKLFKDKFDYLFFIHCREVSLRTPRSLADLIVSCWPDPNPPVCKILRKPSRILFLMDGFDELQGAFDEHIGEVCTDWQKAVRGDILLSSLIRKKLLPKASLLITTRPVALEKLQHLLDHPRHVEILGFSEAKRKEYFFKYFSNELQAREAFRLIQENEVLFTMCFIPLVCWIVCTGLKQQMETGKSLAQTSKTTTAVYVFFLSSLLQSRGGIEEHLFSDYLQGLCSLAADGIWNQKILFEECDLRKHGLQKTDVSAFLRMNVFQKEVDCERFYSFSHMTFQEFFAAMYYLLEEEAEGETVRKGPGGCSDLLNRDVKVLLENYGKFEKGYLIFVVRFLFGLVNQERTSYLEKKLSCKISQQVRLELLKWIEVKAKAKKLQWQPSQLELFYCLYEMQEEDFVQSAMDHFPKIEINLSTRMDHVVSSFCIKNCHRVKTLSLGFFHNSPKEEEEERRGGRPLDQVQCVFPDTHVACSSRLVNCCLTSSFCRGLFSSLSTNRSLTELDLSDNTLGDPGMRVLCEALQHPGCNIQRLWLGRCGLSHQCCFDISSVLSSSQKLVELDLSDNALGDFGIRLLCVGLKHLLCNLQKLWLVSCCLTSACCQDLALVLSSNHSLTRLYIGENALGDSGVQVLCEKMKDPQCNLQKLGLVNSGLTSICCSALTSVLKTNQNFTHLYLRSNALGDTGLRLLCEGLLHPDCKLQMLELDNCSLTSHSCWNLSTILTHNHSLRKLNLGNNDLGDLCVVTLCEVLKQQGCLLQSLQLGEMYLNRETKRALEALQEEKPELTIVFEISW
NACHT, LRR and PYD domains-containing protein 3, sequence (Q8R4B8 whole entry, the tested form may be a part): as above

IC50 [1]	SMILES	CC50 [2]	other results
> 40 µM	Cc1c(-c2ccccc2)oc2c1C(=O)C(=O)c1c-2ccc2c1CCCC2(C)C	> 100 µM	–
1.27 µM	Cc1coc2c1C(=O)C(=O)c1c-2ccc2c1C(OC(=O)CCCCC1CCSS1)CCC2(C)C (centres undefined)	26.8 µM	–
9.11 µM	COc1cc(/C=C/C(=O)OC2CCC(C)(C)c3ccc4c(c32)C(=O)C(=O)c2c(C)coc2-4)cc(OC)c1OC (centres undefined)	60.2 µM	–
> 40 µM	Cc1coc2c3ccc4c(c3c3ocnc3c12)CCCC4(C)C	> 100 µM	–
5.21 µM	Cc1c(Br)oc2c1C(=O)C(=O)c1c-2ccc2c1CCCC2(C)C	> 100 µM	–
5.53 µM	Cc1coc2c1C(=O)C(=O)c1c-2ccc2c1C(OC(=O)c1cccc(O)c1)CCC2(C)C (centres undefined)	18.2 µM	–
1.25 µM	CC(=O)OC1CCC(C)(C)c2ccc3c(c21)C(=O)C(=O)c1c(C)coc1-3 (centres undefined)	36.5 µM	–
4.3 µM	Cc1c(S(=O)(=O)O)oc2c1C(=O)C(=O)c1c-2ccc2c1CCCC2(C)C [TANSHINONE IIA SULFONIC ACID]	> 100 µM	–
3.6 µM	Cc1coc2c1C(=O)C(=O)c1c-2ccc2c1C(OC(=O)c1cc(Cl)ccc1Cl)CCC2(C)C (centres undefined)	19.7 µM	–
5.15 µM	Cc1coc2c1C(=O)C(=O)c1c-2ccc2c1CCCC2(C)C [TANSHINONE IIA]	> 100 µM	–
2.57 µM	Cc1coc2c1C(=O)C(=O)c1c-2ccc2c1C(OC(=O)c1ccc(O)cc1)CCC2(C)C (centres undefined)	14.5 µM	–
0.48 µM	Cc1coc2c1C(=O)C(=O)c1c-2ccc2c1C(OC(=O)c1ccccc1O)CCC2(C)C (centres undefined)	30.8 µM	inhibition [3]: Dose-Dependent Effect; selectivity ratio (NLRP3 inflammasome): 62.1; inhibition [4]: Dose-Dependent Effect; inhibition [5]: Active; inhibition [6]: Active; inhibition [7]: Active; inhibition [8]: Active; Activity (Mus musculus [9]): Active; Activity (Mus musculus [10]): Active; Activity (J774.A1 [11]): 60%; Activity (J774.A1 [12]): 56%; inhibition (J774.A1 [13]): Dose-Dependent Effect; inhibition (J774.A1 [14]): Active
0.61 µM	Cc1coc2c1C(=O)C(=O)c1c-2ccc2c1C=CCC2(C)C	61.8 µM	–
